Results: ChEMBL document CHEMBL4229520, “Design and synthesis of C10 modified and ring-truncated canthin-6-one analogues as effective membrane-active antibacterial agents” (Bioorg Med Chem Lett, 2018)
Converted amounts (≈) assume the structure as drawn. The source made the active and inactive calls. The rule behind the calls is not given here.

Tests used:
Bacillus cereus = assay: Antibacterial activity against Bacillus cereus after 12 to 14 hrs; format: functional
Ralstonia solanacearum [1] = assay: Antibacterial activity against Ralstonia solanacearum after 12 to 14 hrs; format: functional
Staphylococcus aureus [2] = assay: Antibacterial activity against Staphylococcus aureus after 12 to 14 hrs; format: functional
Staphylococcus aureus [3] = assay: Antibacterial activity against methicillin-resistant Staphylococcus aureus after 12 to 14 hrs; format: functional
Bacillus subtilis = assay: Antibacterial activity against Bacillus subtilis after 12 to 14 hrs; format: functional
Ralstonia solanacearum [4] = assay: Potency index, ratio of propineb MIC to test compound MIC for Ralstonia solanacearum; format: functional
Triticum aestivum = assay: Allelopathic activity against Triticum aestivum assessed as germination rate at 4 ug/ml after 48 hrs (reference value: 91 +/- 0.42%); format: organism-based; conditions: in vivo
Radish = assay: Allelopathic activity against Raphanus sativus assessed as germination rate at 4 ug/ml after 48 hrs (reference value: 92 +/- 0.47%); format: organism-based; conditions: in vivo
HeLa = assay: Cytotoxicity against human HeLa cells assessed as decrease in cell viability after 48 hrs by MTT assay; format: cell-based
[5] = Cytotoxicity against human HeLa cells assessed as cell viability at 4 ug/ml after 48 hrs by MTT assay relative to control; format: cell-based; conditions: read-out: Activity
[6] = Selectivity index, ratio of IC50 for human SGC7901 cells to MIC for Ralstonia solanacearum; format: toxicity; conditions: read-out: Selectivity Index
Staphylococcus aureus [7] = assay: Induction of membrane permeabilization in Staphylococcus aureus at MIC by beta-galactosidase leakage assay; format: functional, organism-based
Staphylococcus aureus [8] = assay: Induction of morphological changes in Staphylococcus aureus assessed as cell shrinkage at 1 ug/ml after 1 hr by SEM analysis; format: functional, organism-based
L02 = assay: Cytotoxicity against human L02 cells assessed as decrease in cell viability after 48 hrs by MTT assay; format: cell-based; conditions: L02, 48 h
Ralstonia solanacearum [9] = assay: Protection against Ralstonia solanacearum-induced infection in eggplant leaf at 4 ug/ml after 3 days relative to control; format: functional
[10] = Selectivity index, ratio of IC50 for human L02 cells to MIC for Bacillus cereus; format: toxicity; conditions: read-out: Selectivity Index
[11] = Cytotoxicity against human SGC7901 cells assessed as cell viability at 4 ug/ml after 48 hrs by MTT assay relative to control; format: cell-based, SGC-7901; conditions: read-out: Activity
A549 = assay: Cytotoxicity against human A549 cells assessed as decrease in cell viability after 48 hrs by MTT assay; format: cell-based; conditions: A549, 48 h
[12] = Cytotoxicity against human A549 cells assessed as cell viability at 4 ug/ml after 48 hrs by MTT assay relative to control; format: cell-based; conditions: read-out: Activity
Staphylococcus aureus [13] = assay: Induction of membrane damage in Staphylococcus aureus at 1 ug/ml after 1 hr by Hoechst/propidium iodide staining-based fluorescence microscopic method; format: functional, organism-based
Staphylococcus aureus [14] = assay: Potency index, ratio of fosfomycin sodium MIC to test compound MIC for methicillin-resistant Staphylococcus aureus; format: functional
[15] = Selectivity index, ratio of IC50 for human A549 cells to MIC for Ralstonia solanacearum; format: toxicity; conditions: read-out: Selectivity Index
[16] = Selectivity index, ratio of IC50 for human HeLa cells to MIC for Bacillus cereus; format: toxicity; conditions: read-out: Selectivity Index
[17] = Selectivity index, ratio of IC50 for human L02 cells to MIC for Ralstonia solanacearum; format: toxicity; conditions: read-out: Selectivity Index
Staphylococcus aureus [18] = assay: Potency index, ratio of cefotaxime sodium MIC to test compound MIC for methicillin-resistant Staphylococcus aureus; format: functional
SGC-7901 = assay: Cytotoxicity against human SGC7901 cells assessed as decrease in cell viability after 48 hrs by MTT assay; format: cell-based; conditions: SGC-7901, 48 h
[19] = Selectivity index, ratio of IC50 for human HeLa cells to MIC for Ralstonia solanacearum; format: toxicity; conditions: read-out: Selectivity Index
[20] = Cytotoxicity against human L02 cells assessed as cell viability at 4 ug/ml after 48 hrs by MTT assay relative to control; format: cell-based; conditions: read-out: Activity
[21] = Selectivity index, ratio of IC50 for human SGC7901 cells to MIC for Bacillus cereus; format: toxicity; conditions: read-out: Selectivity Index
[22] = Selectivity index, ratio of IC50 for human A549 cells to MIC for Bacillus cereus; format: toxicity; conditions: read-out: Selectivity Index

O=C1CCC2(SCCS2)c2cc3ccccc3n21
MIC (Bacillus cereus): > 64 µg/mL | MIC (Ralstonia solanacearum [1]): > 64 µg/mL | MIC (Staphylococcus aureus [2]): 32 µg/mL (≈ 116 µM) | MIC (Staphylococcus aureus [3]): > 64 µg/mL | MIC (Bacillus subtilis): > 64 µg/mL

c1ccc2c(c1)[nH]c1cnccc12 [NORHARMANE]
MIC (Bacillus cereus): > 64 µg/mL | MIC (Ralstonia solanacearum [1]): > 64 µg/mL | MIC (Staphylococcus aureus [2]): > 64 µg/mL | MIC (Staphylococcus aureus [3]): > 64 µg/mL | MIC (Bacillus subtilis): > 64 µg/mL

COc1ccc2[nH]c3cnccc3c2c1
MIC (Bacillus cereus): > 64 µg/mL | MIC (Ralstonia solanacearum [1]): > 64 µg/mL | MIC (Staphylococcus aureus [2]): > 64 µg/mL | MIC (Staphylococcus aureus [3]): > 64 µg/mL | MIC (Bacillus subtilis): > 64 µg/mL

CCc1cc2nccc3c4cc(OC)ccc4n(c1=O)c23
MIC (Bacillus cereus): > 64 µg/mL | MIC (Ralstonia solanacearum [1]): > 64 µg/mL | MIC (Staphylococcus aureus [2]): > 64 µg/mL | MIC (Bacillus subtilis): > 64 µg/mL

O=c1ccc2nccc3c4cc(OCc5cn(Cc6ccccc6)nn5)ccc4n1c23
MIC (Bacillus cereus): > 64 µg/mL | MIC (Bacillus subtilis): > 64 µg/mL

COc1ccc2c(c1)c1ccnc3c1n2CCC3
MIC (Bacillus cereus): 32 µg/mL (≈ 134 µM) | MIC (Ralstonia solanacearum [1]): 4 µg/mL (≈ 16.8 µM) | Ratio (Ralstonia solanacearum [4]): 2 | MIC (Staphylococcus aureus [2]): > 64 µg/mL | MIC (Staphylococcus aureus [3]): 32 µg/mL (≈ 134 µM) | MIC (Bacillus subtilis): > 64 µg/mL

COc1ccc2c(c1)c1cc[n+]([O-])c3ccc(=O)n2c13
MIC (Bacillus cereus): > 64 µg/mL | MIC (Ralstonia solanacearum [1]): > 64 µg/mL | MIC (Staphylococcus aureus [2]): > 64 µg/mL | MIC (Bacillus subtilis): > 64 µg/mL

O=C(O)CNCP(=O)(O)O [GLYPHOSATE]
Activity (Triticum aestivum): 75% | Activity (Radish): 78%

COc1ccc2c(c1)c1c3n2C(=O)CCC3N(Cc2ccccc2)CC1 (centres undefined)
MIC (Bacillus cereus): > 64 µg/mL | MIC (Ralstonia solanacearum [1]): > 64 µg/mL | MIC (Staphylococcus aureus [2]): 64 µg/mL (≈ 185 µM) | MIC (Staphylococcus aureus [3]): 64 µg/mL (≈ 185 µM) | MIC (Bacillus subtilis): > 64 µg/mL

O=C1CCC(=O)n2c1cc1ccccc12
MIC (Bacillus cereus): 16 µg/mL (≈ 80.3 µM) | MIC (Ralstonia solanacearum [1]): 8 µg/mL (≈ 40.2 µM) | MIC (Staphylococcus aureus [2]): 8 µg/mL (≈ 40.2 µM) | MIC (Staphylococcus aureus [3]): 4 µg/mL (≈ 20.1 µM) | MIC (Bacillus subtilis): 4 µg/mL (≈ 20.1 µM)

COc1ccc2c(c1)c1ccnc3c1n2CN(Cc1ccccc1)C3
MIC (Bacillus cereus): 64 µg/mL (≈ 194 µM) | MIC (Ralstonia solanacearum [1]): > 64 µg/mL | MIC (Staphylococcus aureus [2]): > 64 µg/mL | MIC (Bacillus subtilis): 64 µg/mL (≈ 194 µM)

COc1ccc2[nH]c3c(C(OC)OC)nccc3c2c1
MIC (Bacillus cereus): > 64 µg/mL | MIC (Ralstonia solanacearum [1]): > 64 µg/mL | MIC (Staphylococcus aureus [2]): > 64 µg/mL | MIC (Bacillus subtilis): > 64 µg/mL

O=C1CCC(=O)n2ccc3cccc1c32
MIC (Bacillus cereus): > 64 µg/mL | MIC (Ralstonia solanacearum [1]): > 64 µg/mL | MIC (Staphylococcus aureus [2]): > 64 µg/mL | MIC (Bacillus subtilis): > 64 µg/mL

C[C@@H]1O[C@@H]1P(=O)([O-])[O-].[Na+].[Na+] [PHOSPHOMYCIN DISODIUM]
MIC (Bacillus cereus): 4 µg/mL | MIC (Ralstonia solanacearum [1]): 8 µg/mL | MIC (Staphylococcus aureus [2]): 16 µg/mL | MIC (Staphylococcus aureus [3]): 8 µg/mL | MIC (Bacillus subtilis): 2 µg/mL

O=C1CCCC2Cc3ccccc3N12 (centres undefined)
MIC (Bacillus cereus): > 64 µg/mL | MIC (Ralstonia solanacearum [1]): > 64 µg/mL | MIC (Staphylococcus aureus [2]): > 64 µg/mL | MIC (Bacillus subtilis): > 64 µg/mL

O=c1ccc2nccc3c4cc(O)ccc4n1c23
MIC (Bacillus cereus): 16 µg/mL (≈ 67.7 µM) | MIC (Ralstonia solanacearum [1]): > 64 µg/mL | MIC (Staphylococcus aureus [2]): > 64 µg/mL | MIC (Bacillus subtilis): > 64 µg/mL

COc1ccc2[nH]c3c(C=O)nccc3c2c1
MIC (Bacillus cereus): 32 µg/mL (≈ 141 µM) | MIC (Ralstonia solanacearum [1]): > 64 µg/mL | MIC (Staphylococcus aureus [2]): > 64 µg/mL | MIC (Bacillus subtilis): > 64 µg/mL

COc1ccc2c(c1)c1ccnc3ccc(=O)n2c31
MIC (Bacillus cereus): 4 µg/mL (≈ 16 µM) | MIC (Ralstonia solanacearum [1]): 16 µg/mL (≈ 63.9 µM) | MIC (Staphylococcus aureus [2]): > 64 µg/mL | MIC (Staphylococcus aureus [3]): 64 µg/mL (≈ 256 µM) | MIC (Bacillus subtilis): 8 µg/mL (≈ 32 µM)

CO/N=C(\C(=O)N[C@@H]1C(=O)N2C(C(=O)[O-])=C(COC(C)=O)CS[C@H]12)c1csc(N)n1.[Na+] [CEFOTAXIME SODIUM]
MIC (Bacillus cereus): 16 µg/mL | MIC (Ralstonia solanacearum [1]): 2 µg/mL | MIC (Staphylococcus aureus [2]): 1 µg/mL | MIC (Staphylococcus aureus [3]): 16 µg/mL | MIC (Bacillus subtilis): 2 µg/mL

C#CCOc1ccc2c(c1)c1ccnc3ccc(=O)n2c31
MIC (Bacillus cereus): 8 µg/mL (≈ 29.2 µM) | MIC (Ralstonia solanacearum [1]): 8 µg/mL (≈ 29.2 µM) | MIC (Staphylococcus aureus [2]): 64 µg/mL (≈ 233 µM) | MIC (Staphylococcus aureus [3]): > 64 µg/mL | MIC (Bacillus subtilis): > 64 µg/mL

O=C1C=CC(=O)n2c1cc1ccccc12
IC50 (HeLa): 82.4 µM | viability at 48 h, 4 ug/ml [5]: 91% | MIC (Bacillus cereus): 4 µg/mL (≈ 20.3 µM) | selectivity ratio [6]: 4 | Activity (Staphylococcus aureus [7]): Active | Activity (Staphylococcus aureus [8]): Active | IC50 (L02): 79.5 µM | Efficacy (Ralstonia solanacearum [9]): 68% | MIC (Ralstonia solanacearum [1]): 4 µg/mL (≈ 20.3 µM) | selectivity ratio [10]: 4.9 | Activity (Triticum aestivum): 97% | viability at 48 h, 4 ug/ml [11]: 96% | IC50 (A549): 97.1 µM | viability at 48 h, 4 ug/ml [12]: 103% | Activity (Staphylococcus aureus [13]): Active | Ratio (Staphylococcus aureus [14]): 4 | MIC (Staphylococcus aureus [2]): 2 µg/mL (≈ 10.1 µM) | selectivity ratio [15]: 4.4 | selectivity ratio [16]: 4.1 | selectivity ratio [17]: 4 | MIC (Staphylococcus aureus [3]): 2 µg/mL (≈ 10.1 µM) | Ratio (Staphylococcus aureus [18]): 8 | IC50 (SGC-7901): 88.6 µM | selectivity ratio [19]: 4.4 | MIC (Bacillus subtilis): 2 µg/mL (≈ 10.1 µM) | viability at 48 h, 4 ug/ml [20]: 89% | selectivity ratio [21]: 4.9 | selectivity ratio [22]: 4.1 | Activity (Radish): 100%

O=C1CCC(O)c2cc3ccccc3n21 (centres undefined)
MIC (Bacillus cereus): 16 µg/mL (≈ 79.5 µM) | MIC (Ralstonia solanacearum [1]): 32 µg/mL (≈ 159 µM) | MIC (Staphylococcus aureus [2]): 8 µg/mL (≈ 39.8 µM) | MIC (Staphylococcus aureus [3]): 32 µg/mL (≈ 159 µM) | MIC (Bacillus subtilis): 16 µg/mL (≈ 79.5 µM)

O=C1CCCc2cc3ccccc3n21
MIC (Bacillus cereus): > 64 µg/mL | MIC (Ralstonia solanacearum [1]): > 64 µg/mL | MIC (Staphylococcus aureus [2]): > 64 µg/mL | MIC (Bacillus subtilis): > 64 µg/mL

COc1ccc2c(c1)c1c3n2C(=O)CCC3NCC1 (centres undefined)
MIC (Bacillus cereus): > 64 µg/mL | MIC (Ralstonia solanacearum [1]): > 64 µg/mL | MIC (Staphylococcus aureus [2]): > 64 µg/mL | MIC (Bacillus subtilis): > 64 µg/mL
